Source: publication PMC4490784, “Compensatory induction of MYC expression by sustained CDK9 inhibition via a BRD4-dependent mechanism” (eLife, 2015)

Test system: MYC protein in HeLa cells
Assay: Immunoblotting of MYC protein in HeLa cell lysates
Type: cell-based, human
Conditions: for effect on MYC induction by i-CDK9: pretreatment before i-CDK9
Procedure: Figure 3. Induction of MYC mRNA production in response to sustained inhibition of CDK9 by i-CDK9 and the requirement of MYC's natural genomic structure in this process. (A) The indicated tumor cell lines were treated with i-CDK9 (0.5 μM) for 2–16 hr and the MYC mRNA levels, which were divided by those in the DMSO-treated cells and averaged from three independent replicates of DNA microarray analysis, were shown as log2 values. (B) HeLa cells were treated with the indicated concentrations of i-CDK9 for 8 hr and the various proteins in the total cell lysates were detected by immunoblotting as indicated. Quantifications of the levels of MYC protein and Ser2-phosphoryalted Pol II (pSer2) in the lysates were shown above and below the immunoblots, respectively. […] The levels of the indicated proteins were examined by immunoblotting. (G) A HeLa-based cell line containing the stably transfected, doxycycline (Dox)-inducible MYC-F-expressing plasmid driven by the CMV promoter was pretreated with (+) or without (−) Dox prior to incubation with i-CDK9 or DMSO. MYC and MYC-F expressed from the endogenous MYC locus and the transfected plasmid, respectively, were detected by immunoblotting. DOI: http://dx.doi.org/10.7554/eLife.06535.007 Figure 3—figure supplement 1. Biphasic response of MYC mRNA production throughout the course of CDK9 inhibition by i-CDK9. DOI: http://dx.doi.org/10.7554/eLife.06535.008 [drawing 2] Figure 3—Figure supplement 2. […] DOI: http://dx.doi.org/10.7554/eLife.06535.009 [drawing 3] TEXT PRINTED IN THE PICTURE: (B) i-CDK9: Fold increase in MYC protein: 1.0 (i-CDK9 (μM): 0); Fold increase in MYC protein: 1.2 (i-CDK9 (μM): 0.01); Fold increase in MYC protein: 1.7 (i-CDK9 (μM): 0.03); Fold increase in MYC protein: 3.6 (i-CDK9 (μM): 0.1); Fold increase in MYC protein: 5.2 (i-CDK9 (μM): 0.3); Fold increase in MYC protein: 5.5 (i-CDK9 (μM): 1.0) | (C) i-CDK9: Fold increase in MYC protein: 1.0 (0.3 μM i-CDK9 (h): 0); Fold increase in MYC protein: 0.9 (0.3 μM i-CDK9 (h): 1); Fold increase in MYC protein: 1.1 (0.3 μM i-CDK9 (h): 2); Fold increase in MYC protein: 1.2 (0.3 μM i-CDK9 (h): 4); Fold increase in MYC protein: 3.3 (0.3 μM i-CDK9 (h): 8)
First, the induction of MYC protein level was confirmed in HeLa cells treated with i-CDK9. […] It took 1.0 µM i-CDK9 to cause up to 85% reduction in pSer2. In a separate time-course analysis, the 8-hr incubation with i-CDK9 (0.3 μM) induced the MYC level by 3.3-fold, whereas the same condition reduced the pSer2 level by only 40% (Figure 3C). Thus, MYC expression was highly responsive to i-CDK9 treatment and occurred at a time point earlier and drug concentration lower than those required to achieve a significant suppression of Ser2 phosphorylation on the Pol II CTD.

Row | Compound | MYC protein level (e.g. 4 hr, e.g. 0.1 μM) | effect on MYC induction by i-CDK9
1 | CN1CC[C@H](c2c(O)cc(O)c3c(=O)cc(-c4ccccc4Cl)oc23)[C@H](O)C1 [Flavopiridol, flavopiridol, reference compound] | significantly elevated | –
2 | Cc1sc2c(c1C)C(c1ccc(Cl)cc1)=N[C@H](CC(=O)OC(C)(C)C)c1nnc(C)n1-2 [ctl., reference compound] | – | ineffective
3 | Cc1sc2c(c1C)C(c1ccc(Cl)cc1)=N[C@@H](CC(=O)OC(C)(C)C)c1nnc(C)n1-2 [JQ1, reference compound] | – | completely abolished
